Source: patent publication US20250127790A1, “COMBINATION THERAPY USING VPS34 INHIBITORS” (Deciphera Pharmaceuticals, LLC, priority 2021, published 2025)

Assays:
[1] = tested on: CT26 colorectal cancer cells; assay: Cytokine secretion assay, combination with cGAMP, CT26 cells; format: cell-based, mouse; conditions: 24 hours, 5 μM Compound 1 or 10 μM Compound 2, 10 mg/mL cGAMP
Protocol: (§1) CT26 cells were treated for 24 hours with DMSO or VPS34 inhibitors (5 μM Compound 1 or 10 μM Compound 2) in combination with 10 mg/mL STING agonist cGAMP (green bars). Cells were washed with PBS and RNA was isolated using the PureLink RNA kit (#12183018A, Thermo Fisher Scientific) according to the manufacturer's protocol. Genomic DNA was removed using DNA-binding columns (RNeasy plus kit, #74134, Qiagen) and/or DNase treatment (#12185010, Thermo Fisher Scientific). RNA was quantified using NanoDrop (Thermo Fisher Scientific) and 50 ng/μL RNA was used for cDNA synthesis with SuperScript IV VILO Master Mix (#11756050, Thermo Fisher Scientific). Quantitative RT-PCR (qRT-PCR) was run with diluted cDNA (1:25 or 1:12.5), PowerUp SYBR Green Master Mix (#A25741, Thermo Fisher Scientific), and 200 nM primers (see below) on a CFX Connect RT-PCR system (BioRad). Data was analyzed using the ΔΔCT method. Results are mean±SEM of three independent experiments.
(§2) Cell culture medium was centrifuged at 1600 rpm for 10 min at 4° C. and obtained supernatant stored at −80° C. Cytokine levels were quantified using following Meso Scale Discovery (MSD) assays: mouse U-PLEX RANTES/CCL5 (#K152A2K) and U-PLEX IP-10/CXCL10 (#K152UFK). Assays were run on the SECTOR Quickplex Imager and analyzed using Discovery Workbench version 4.0 (MSD).

4T1 breast cancer cells [2] = assay: qRT-PCR, combination with cGAMP, 4T1 cells; format: cell-based, Mouse; conditions: 24 hours, 5 μM Compound 1 or 10 μM Compound 2, 10 mg/ml cGAMP
Protocol: as §1, with “4T1” for “CT26”, “mg/ml” for “mg/mL”

YUMM 1.7 melanoma cells [3] = assay: Cytokine secretion assay, combination with cGAMP, YUMM1.7 cells; format: cell-based, mouse; conditions: 24 hours, 5 μM Compound 1 or 10 μM Compound 2, 10 mg/ml cGAMP
Protocol: as §1, with “YUMM1.7” for “CT26”, “mg/ml” for “mg/mL”
as §2

4T1 breast cancer cells [4] = assay: Cytokine secretion assay, combination with cGAMP, 4T1 cells; format: cell-based, mouse; conditions: 24 hours, 5 μM Compound 1 or 10 μM Compound 2, 10 mg/ml cGAMP
Protocol: as §1, with “4T1” for “CT26”, “mg/ml” for “mg/mL”
as §2

YUMM 1.7 melanoma cells [5] = assay: qRT-PCR, combination with cGAMP, YUMM1.7 cells; format: cell-based, Mouse; conditions: 24 hours, 5 μM Compound 1 or 10 μM Compound 2, 10 mg/ml cGAMP
Protocol: as §1, with “YUMM1.7” for “CT26”, “mg/ml” for “mg/mL”

[6] = tested on: CT26 colorectal cancer cells; assay: qRT-PCR, combination with cGAMP, CT26 cells; format: cell-based, Mouse; conditions: 24 hours, 5 μM Compound 1 or 10 μM Compound 2, 10 mg/mL cGAMP
Protocol: as §1

Nc1nc2c(ncn2[C@@H]2O[C@@H]3COP(=O)(O)O[C@H]4[C@@H](O)[C@H](n5cnc6c(N)ncnc65)O[C@@H]4COP(=O)(O)O[C@@H]2[C@@H]3O)c(=O)[nH]1 [cGAMP, reference compound]
increased: CCL5 protein secretion [1] | CXCL10 protein secretion [1] | CCL5 mRNA expression (4T1 breast cancer cells [2]) | CXCL10 mRNA expression (4T1 breast cancer cells [2]) | CCL5 protein secretion (YUMM 1.7 melanoma cells [3]) | CXCL10 protein secretion (YUMM 1.7 melanoma cells [3]) | CCL5 protein secretion (4T1 breast cancer cells [4]) | CXCL10 protein secretion (4T1 breast cancer cells [4]) | CCL5 mRNA expression (YUMM 1.7 melanoma cells [5]) | CXCL10 mRNA expression (YUMM 1.7 melanoma cells [5]) | CCL5 mRNA expression [6] | CXCL10 mRNA expression [6]
